Measured values reported in ChEMBL document CHEMBL1121716, “Potential organ- or tumor-imaging agents. 21. Acyl-labeled esters of cholesterol” (J Med Chem, 1981).
Each block holds one compound with its values, some of them ahead of it.

Tests used:
Conditions in all cases: in vivo
Rattus norvegicus [1] = experiment: Accumulation in adrenal cortex was evaluated by distribution of radioactivity at 0.5 hr after intravenous administration of 4-14C radiolabeled Cholesteryl Oleate to Rats; assay type: ADME, organism-based
Rattus norvegicus [2] = experiment: Accumulation in adrenal cortex was evaluated by distribution of radioactivity at 0.5 h after intravenous administration of oleate 1-14C radiolabeled Cholesteryl Oleate to Rats; assay type: ADME, organism-based
Rattus norvegicus [3] = experiment: Accumulation in blood was evaluated by distribution of radioactivity at 0.5 hr after intravenous administration of 4-14C radiolabeled Cholesteryl Oleate to Rats; assay type: ADME, organism-based
Rattus norvegicus [4] = experiment: Accumulation in blood was evaluated by distribution of radioactivity at 0.5 hr after intravenous administration of oleate 1-14C radiolabeled Cholesteryl Oleate to Rats; assay type: ADME, organism-based
Rattus norvegicus [5] = experiment: Accumulation in liver was evaluated by distribution of radioactivity at 0.5 hr after intravenous administration of 4-14C radiolabeled Cholesteryl Oleate to Rats; assay type: ADME, organism-based
Rattus norvegicus [6] = experiment: Accumulation in liver was evaluated by distribution of radioactivity at 0.5 hr after intravenous administration of oleate 1-14C radiolabeled Cholesteryl Oleate to Rats; assay type: ADME, organism-based
Rattus norvegicus [7] = experiment: Accumulation in thyroid was evaluated by distribution of radioactivity at 0.5 hr after intravenous administration of 4-14C radiolabeled Cholesteryl Oleate to Rats; assay type: ADME, organism-based, Thyroid gland
Rattus norvegicus [8] = experiment: Accumulation in thyroid was evaluated by distribution of radioactivity at 0.5 hr after intravenous administration of oleate 1-14C radiolabeled Cholesteryl Oleate to Rats; assay type: ADME, organism-based, Thyroid gland
Rattus norvegicus [9] = experiment: Accumulation in ovary was evaluated by distribution of radioactivity at 0.5 hr after intravenous administration of 4-14C radiolabeled Cholesteryl Oleate to Rats; assay type: ADME, organism-based, Female gonad
Rattus norvegicus [10] = experiment: Accumulation in ovary was evaluated by distribution of radioactivity at 0.5 hr after intravenous administration of oleate 1-14C radiolabeled Cholesteryl Oleate to Rats; assay type: ADME, organism-based, Female gonad
Rattus norvegicus [11] = experiment: Accumulation in adrenal cortex was evaluated by distribution of radioactivity at 0.5 hr after intravenous administration of radioiodinated cholesteryl 2,3,5-tri[125I]iodobenzoate to Rats; assay type: ADME, organism-based
Rattus norvegicus [12] = experiment: Accumulation in adrenal cortex was evaluated by distribution of radioactivity at 24 hr after intravenous administration of radioiodinated cholesteryl 2,3,5-tri[125I]iodobenzoate to Rats; assay type: ADME, organism-based
Rattus norvegicus [13] = experiment: Accumulation in blood was evaluated by distribution of radioactivity at 0.5 hr after intravenous administration of radioiodinated cholesteryl 2,3,5-tri[125I]iodobenzoate to Rats; assay type: ADME, organism-based
Rattus norvegicus [14] = experiment: Accumulation in blood was evaluated by distribution of radioactivity at 24 hr after intravenous administration of radioiodinated cholesteryl 2,3,5-tri[125I]iodobenzoate to Rats; assay type: ADME, organism-based
Rattus norvegicus [15] = experiment: Accumulation in liver was evaluated by distribution of radioactivity at 0.5 hr after intravenous administration of radioiodinated cholesteryl 2,3,5-tri[125I]iodobenzoate to Rats; assay type: ADME, organism-based
Rattus norvegicus [16] = experiment: Accumulation in liver was evaluated by distribution of radioactivity at 24 hr after intravenous administration of radioiodinated cholesteryl 2,3,5-tri[125I]iodobenzoate to Rats; assay type: ADME, organism-based
Rattus norvegicus [17] = experiment: Accumulation in lung was evaluated by distribution of radioactivity at 0.5 hr after intravenous administration of radioiodinated cholesteryl 2,3,5-tri[125I]iodobenzoate to Rats; assay type: ADME, organism-based
Rattus norvegicus [18] = experiment: Accumulation in lung was evaluated by distribution of radioactivity at 24 hr after intravenous administration of radioiodinated cholesteryl 2,3,5-tri[125I]iodobenzoate to Rats; assay type: ADME, organism-based
Rattus norvegicus [19] = experiment: Accumulation in spleen was evaluated by distribution of radioactivity at 24 h after intravenous administration of radioiodinated cholesteryl 2,3,5-tri[125I]iodobenzoate to Rats; assay type: ADME, organism-based
Rattus norvegicus [20] = experiment: Accumulation in thyroid was evaluated by distribution of radioactivity at 0.5 hr after intravenous administration of radioiodinated cholesteryl 2,3,5-tri[125I]iodobenzoate to Rats; assay type: ADME, organism-based, Thyroid gland
Rattus norvegicus [21] = experiment: Accumulation in thyroid was evaluated by distribution of radioactivity at 24 hr after intravenous administration of radioiodinated cholesteryl 2,3,5-tri[125I]iodobenzoate to Rats; assay type: ADME, organism-based, Thyroid gland
Rattus norvegicus [22] = experiment: Accumulation in ovary was evaluated by distribution of radioactivity at 0.5 hr after intravenous administration of radioiodinated cholesteryl 2,3,5-tri[125I]iodobenzoate to Rats; assay type: ADME, organism-based, Female gonad
Rattus norvegicus [23] = experiment: Accumulation in ovary was evaluated by distribution of radioactivity at 24 hr after intravenous administration of radioiodinated cholesteryl 2,3,5-tri[125I]iodobenzoate to Rats; assay type: ADME, organism-based, Female gonad
Rattus norvegicus [24] = experiment: Accumulation in spleen was evaluated by distribution of radioactivity at 0.5 hr after intravenous administration of radioiodinated cholesteryl 2,3,5-tri[125I]iodobenzoate to Rats; assay type: ADME, organism-based

SMILES: CCCCCCCC/C=C\CCCCCCCC(=O)OC1CCC2(C)C(=CCC3C2CCC2(C)C(C(C)CCCC(C)C)CCC32)C1 (centres undefined)
- Dose/g of tissue (Rattus norvegicus [1]): 3.85%
- Dose/g of tissue (Rattus norvegicus [2]): 2.448%
- Dose/g of tissue (Rattus norvegicus [3]): 5.78%
- Dose/g of tissue (Rattus norvegicus [4]): 5.196%
- Dose/g of tissue (Rattus norvegicus [5]): 1.569%
- Dose/g of tissue (Rattus norvegicus [6]): 1.236%
- Dose/g of tissue (Rattus norvegicus [7]): 0.446%
- Dose/g of tissue (Rattus norvegicus [8]): 0.344%
- Dose/g of tissue (Rattus norvegicus [9]): 2.815%
- Dose/g of tissue (Rattus norvegicus [10]): 2.088%

- Dose/g of tissue (Rattus norvegicus [11]): 5.455%
- Dose/g of tissue (Rattus norvegicus [12]): 9.032%
- Dose/g of tissue (Rattus norvegicus [13]): 5.46%
- Dose/g of tissue (Rattus norvegicus [14]): 0.568%
- Dose/g of tissue (Rattus norvegicus [15]): 2.726%
- Dose/g of tissue (Rattus norvegicus [16]): 5.106%
- Dose/g of tissue (Rattus norvegicus [17]): 1.49%
- Dose/g of tissue (Rattus norvegicus [18]): 0.703%
- Dose/g of tissue (Rattus norvegicus [19]): 1.68%
- Dose/g of tissue (Rattus norvegicus [20]): 0.47%
- Dose/g of tissue (Rattus norvegicus [21]): 2.63%
- Dose/g of tissue (Rattus norvegicus [22]): 6.148%
- Dose/g of tissue (Rattus norvegicus [23]): 16.19%
- Dose/g of tissue (Rattus norvegicus [24]): 0.57%
SMILES: CC(C)CCCC(C)C1CCC2C3CC=C4CC(OC(=O)c5cc(I)cc(I)c5I)CCC4(C)C3CCC12C (centres undefined)
